Test results taken from patent US6737383B1, “Herbicidal oxadiazolidines” (priority 1999, dated 2004).

Columns and labels:
[1] = system: morningglory; assay: Test B pre/postemergence morningglory; format: in vivo, Ipomoea hederacea
Outline: (§1)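 Test chemicals in a non-phytotoxic solvent mixture with surfactant were sprayed preemergence onto planted seeds and postemergence onto plants 2 to 18 cm tall (1- to 4-leaf stage). After twelve to sixteen days in a greenhouse, injury was visually rated against untreated controls from 0 (no effect) to 10 (complete control).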

[2] = system: bedstraw; assay: Test B pre/postemergence bedstraw; format: in vivo, Galium aparine
Outline: as §1

[3] = system: blackgrass; assay: Test B pre/postemergence blackgrass; format: in vivo, Alopecurus myosuroides
Outline: as §1

[4] = system: wild oat; assay: Test B pre/postemergence wild oat; format: in vivo, Avena fatua; conditions: for Plant response rating, Wild oats: Rate 250 g/ha
Outline: as §1

[5] = system: soybean; assay: Test B pre/postemergence soybean; format: in vivo, Glycine max
Outline: as §1

[6] = system: giant foxtail; assay: Test B pre/postemergence giant foxtail; format: in vivo, Setaria faberii
Outline: as §1

[7] = system: corn; assay: Test B pre/postemergence corn; format: in vivo, Zea mays
Outline: as §1

[8] = system: wheat; assay: Test B pre/postemergence wheat; format: in vivo, Triticum aestivum; conditions: for Plant response rating, Wheat: Rate 250 g/ha
Outline: as §1

[9] = system: crabgrass; assay: Test B pre/postemergence crabgrass; format: in vivo, Digitaria sanguinalis
Outline: as §1

[10] = system: cocklebur; assay: Test B pre/postemergence cocklebur; format: in vivo, Xanthium strumarium
Outline: as §1

[11] = system: surinam grass; assay: Test B pre/postemergence surinam grass; format: in vivo, Brachiaria decumbens
Outline: as §1

[12] = system: rape; assay: Test B pre/postemergence rape; format: in vivo, Brassica napus
Outline: as §1

[13] = system: purple nutsedge; assay: Test B pre/postemergence purple nutsedge; format: in vivo, Cyperus rotundus
Outline: as §1

[14] = system: sugar beet; assay: Test B pre/postemergence sugar beet; format: in vivo, Beta vulgaris; conditions: for Plant response rating, Sugarbeets: Rate 250 g/ha
Outline: as §1

[15] = system: pigweed; assay: Test B pre/postemergence pigweed; format: in vivo, Amaranthus retroflexus
Outline: as §1

[16] = system: velvetleaf; assay: Test B pre/postemergence velvetleaf; format: in vivo, Abutilon theophrasti; conditions: for Plant response rating, Velvetleaf: Rate 250 g/ha
Outline: as §1

[17] = Postemergence, Rate 125 g/ha, scale of 0 to 10 where 0 is no effect and 10 is complete control
[18] = Postemergence, Rate 250 g/ha, scale 0 to 10, 0 no effect, 10 complete control
[19] = Preemergence, Rate 62 g/ha, scale 0 to 10 (0 no effect, 10 complete control)
[20] = Preemergence, Rate 125 g/ha, scale 0 to 10 (0 no effect, 10 complete control)
[21] = Preemergence, Rate 250 g/ha, scale of 0 to 10 where 0 is no effect and 10 is complete control
[22] = Preemergence, Rate 500 g/ha, scale 0 to 10 (0 no effect, 10 complete control)
[23] = Rate 62 g/ha, Postemergence, scale of 0 to 10 where 0 is no effect and 10 is complete control
[24] = Rate 500 g/ha, Postemergence, scale 0 to 10, 0 no effect, 10 complete control
[25] = Preemergence, Rate 125 g/ha, 0 is no effect, 10 is complete control
[26] = Preemergence, scale of 0 to 10 where 0 is no effect and 10 is complete control
[27] = Postemergence, scale 0 to 10, 0 is no effect, 10 is complete control
[28] = Rate 250 g/ha, Postemergence, scale 0 to 10, 0 is no effect, 10 is complete control

## COc1ccccc1Cn1c(=O)on(C(=O)N(c2ccccc2)C(C)C)c1=O [Compound 104]
[1]; [17]
  Morningglory plant response rating: 10
[1]; [18]
  Morningglory plant response rating: 10
[1]; [19]
  Morningglory plant response rating: 0
[1]; [20]
  Plant response rating, Morningglory: 0
[1]; [21]
  Plant response rating, Morningglory: 0
[1]; [22]
  Morningglory plant response rating: 0
[1]; [23]
  Morningglory plant response rating: 10
[1]; [24]
  Morningglory plant response rating: 10
[2]; [19]
  Bedstraw plant response rating: 0
[2]; [20]
  Plant response rating, Bedstraw: 0
[2]; [21]
  Plant response rating, Bedstraw: 0
[2]; [22]
  Bedstraw plant response rating: 0
[2]; [24]
  Bedstraw plant response rating: 6
[3]; [17]
  Blackgrass plant response rating: 0
[3]; [18]
  Blackgrass plant response rating: 5
[3]; [19]
  Blackgrass plant response rating: 0
[3]; [20]
  Plant response rating, Blackgrass: 3
[3]; [21]
  Plant response rating, Blackgrass: 6
[3]; [22]
  Blackgrass plant response rating: 7
[3]; [23]
  Blackgrass plant response rating: 0
[3]; [24]
  Blackgrass plant response rating: 6
[4]; [17]
  Wild oats plant response rating: 0
[4]; [19]
  Wild oats plant response rating: 0
[4]; [25]
  Wild oats plant response rating (0 to 10 scale): 2
[4]; [26]
  Plant response rating, Wild oats: 4
[4]; [22]
  Wild oats plant response rating: 7
[4]; [23]
  Wild oats plant response rating: 0
[4]; [27]
  Plant response rating, Wild oats: 0
[4]; [24]
  Wild oats plant response rating: 2
[5]; [17]
  Soybean plant response rating: 5
[5]; [19]
  Soybean plant response rating: 0
[5]; [20]
  Plant response rating, Soybean: 0
[5]; [21]
  Plant response rating, Soybean: 0
[5]; [22]
  Soybean plant response rating: 0
[5]; [23]
  Soybean plant response rating: 4
[5]; [28]
  Plant response rating, Soybean: 5
[5]; [24]
  Soybean plant response rating: 5
[6]; [17]
  Giant foxtail plant response rating: 3
[6]; [18]
  Giant foxtail plant response rating: 4
[6]; [19]
  Giant foxtail plant response rating: 0
[6]; [20]
  Plant response rating, Giant foxtail: 4
[6]; [21]
  Plant response rating, Giant foxtail: 10
[6]; [22]
  Giant foxtail plant response rating: 10
[6]; [23]
  Giant foxtail plant response rating: 3
[6]; [24]
  Giant foxtail plant response rating: 8
[7]; [17]
  Corn plant response rating: 0
[7]; [18]
  Corn plant response rating: 0
[7]; [19]
  Corn plant response rating: 0
[7]; [20]
  Plant response rating, Corn: 0
[7]; [21]
  Plant response rating, Corn: 0
[7]; [22]
  Corn plant response rating: 2
[7]; [23]
  Corn plant response rating: 0
[7]; [24]
  Corn plant response rating: 0
[8]; [17]
  Wheat plant response rating: 0
[8]; [19]
  Wheat plant response rating: 0
[8]; [25]
  Wheat plant response rating (0 to 10 scale): 0
[8]; [26]
  Plant response rating, Wheat: 0
[8]; [22]
  Wheat plant response rating: 4
[8]; [23]
  Wheat plant response rating: 0
[8]; [27]
  Plant response rating, Wheat: 0
[8]; [24]
  Wheat plant response rating: 0
[9]; [17]
  Crabgrass plant response rating: 4
[9]; [18]
  Crabgrass plant response rating: 5
[9]; [19]
  Crabgrass plant response rating: 0
[9]; [20]
  Plant response rating, Crabgrass: 0
[9]; [21]
  Plant response rating, Crabgrass: 1
[9]; [22]
  Crabgrass plant response rating: 9
[9]; [23]
  Crabgrass plant response rating: 0
[9]; [24]
  Crabgrass plant response rating: 8
[10]; [17]
  Cocklebur plant response rating: 0
[10]; [18]
  Cocklebur plant response rating: 2
[10]; [20]
  Plant response rating, Cocklebur: 0
[10]; [21]
  Plant response rating, Cocklebur: 0
[10]; [22]
  Cocklebur plant response rating: 0
[10]; [23]
  Cocklebur plant response rating: 0
[10]; [24]
  Cocklebur plant response rating: 3
[11]; Postemergence, Rate 62 g/ha, scale 0 to 10, 0 is no effect, 10 is complete control
  B. signalgrass plant response rating: 0
[11]; [18]
  B. signalgrass plant response rating: 0
[11]; [19]
  B. signalgrass plant response rating: 0
[11]; [20]
  Plant response rating, B. signalgrass: 0
[11]; [21]
  Plant response rating, B. signalgrass: 5
[11]; [22]
  B. signalgrass plant response rating: 6
[11]; Rate 125 g/ha, Postemergence, scale 0 to 10, 0 no effect, 10 complete control
  B. signalgrass plant response rating: 0
[11]; Rate 500 g/ha, Postemergence, scale of 0 to 10 where 0 is no effect and 10 is complete control
  B. signalgrass plant response rating: 0
[12]; [17]
  Rape plant response rating: 0
[12]; [18]
  Rape plant response rating: 0
[12]; [19]
  Rape plant response rating: 0
[12]; [20]
  Plant response rating, Rape: 0
[12]; [21]
  Plant response rating, Rape: 0
[12]; [22]
  Rape plant response rating: 0
[12]; [23]
  Rape plant response rating: 0
[12]; [24]
  Rape plant response rating: 2
[13]; [17]
  Nutsedge plant response rating: 0
[13]; [18]
  Nutsedge plant response rating: 0
[13]; [19]
  Nutsedge plant response rating: 0
[13]; [20]
  Plant response rating, Nutsedge: 0
[13]; [21]
  Plant response rating, Nutsedge: 0
[13]; [22]
  Nutsedge plant response rating: 0
[13]; [23]
  Nutsedge plant response rating: 0
[13]; [24]
  Nutsedge plant response rating: 0
[14]; [17]
  Sugarbeets plant response rating: 1
[14]; [19]
  Sugarbeets plant response rating: 0
[14]; [25]
  Sugarbeets plant response rating (0 to 10 scale): 0
[14]; [26]
  Plant response rating, Sugarbeets: 1
[14]; [22]
  Sugarbeets plant response rating: 6
[14]; [23]
  Sugarbeets plant response rating: 0
[14]; [27]
  Plant response rating, Sugarbeets: 1
[14]; [24]
  Sugarbeets plant response rating: 3
[15]; [17]
  Redroot pigweed plant response rating: 3
[15]; [19]
  Redroot pigweed plant response rating: 0
[15]; [20]
  Plant response rating, Redroot pigweed: 0
[15]; [21]
  Plant response rating, Redroot pigweed: 0
[15]; [22]
  Redroot pigweed plant response rating: 4
[15]; [23]
  Redroot pigweed plant response rating: 1
[15]; [28]
  Plant response rating, Redroot pigweed: 3
[15]; [24]
  Redroot pigweed plant response rating: 7
[16]; [17]
  Velvetleaf plant response rating: 0
[16]; [19]
  Velvetleaf plant response rating: 0
[16]; [25]
  Velvetleaf plant response rating (0 to 10 scale): 0
[16]; [26]
  Plant response rating, Velvetleaf: 0
[16]; [22]
  Velvetleaf plant response rating: 0
[16]; [23]
  Velvetleaf plant response rating: 0
[16]; [27]
  Plant response rating, Velvetleaf: 3
[16]; [24]
  Velvetleaf plant response rating: 3
